From patent US7964596B2, “Therapeutic compounds” (Allergan, Inc., priority 2008, dated 2011)
“Also recorded” adds a separate entry of the source.

System: lashes and adjacent hairs of patients having glaucoma
Experiment: Observation of lashes and adjacent hairs in glaucoma patients treated in only one eye
Assay type: in vivo, human
Settings: glaucoma patients taking the drug in only one eye; gross inspection and slit lamp biomicroscope
Excerpt: In the course of treating patients having glaucoma, treatment may only be appropriate in one eye. […] The lash appearance on the lids of the treated eyes would have appeared quite attractive if it represented a bilateral phenomenon. As a result of its asymmetric nature, the long lashes on one side could be construed as disturbing from a cosmetic standpoint. A systemic examination was preformed as a result of the asymmetric phenomenon. It soon became apparent that this altered appearance was not an isolated finding. […] Definite differences could be identified to varying degrees in the lashes and adjacent hairs of all patients who were taking the drug on a unilateral basis for longer than 6 months.
The changes in the lashes were apparent on gross inspection in several patients once attention was focused on the issue. In those with light colored hair and lashes, the differences were only seen easily with the aid of the high magnification and lighting capabilities of the slit lamp biomicroscope. In the course of glaucoma follow-up examination, attention is generally immediately focused on the eye itself. As a result of the high power magnification needed only one eye is seen at a time and the eye is seen at a high enough power that the lashes are not in focus. […]

## CCNC(=O)CCC/C=C\C[C@@H]1[C@@H](/C=C/[C@@H](O)CCc2ccccc2)[C@H](O)C[C@@H]1O [bimatoprost]
  lash / hair growth in treated eye versus non-treated eye: longer, thicker, and fuller in the treated eye than in the non-treated eye; also recorded: hair growth is stimulated
